Test results reported in US8410130B2, “Synthesis of 8H-3A-aza-cyclopenta [A ]indenes and 5,10-dihydropyrrolo[1,2-B]isoquinolines derivatives and their use as antitumor therapeutic agents” (Academia Sinica, priority 2007, dated 2013).
Where two headings read alike, the source gives them in different places.

Legend:
CCRF-CEM/VBL = test: In vitro cytotoxicity, XTT assay, vinblastine resistant subline; assay type: cell-based, human; details: for IC50: XTT assay, 72-hr incubation; for fold of cross-resistant, CCRF-CEM/VBL vs IC50 of the parent cell line: numbers in brackets
From the text: (§1) Human colon carcinoma HCT-116 cells, human prostate adenocarcinoma PC-3 and adenocarcinoma SK-OV-3 cells were obtained from American Type Culture Collection (ATCC, Rockville, Md.). Human mammary carcinoma (MX-1) tumor cells were obtained from MSKCC cell bank. The CCRF-CEM human lymphoblastic leukemia cells and their vinblastine resistant subline (CCRF-CEM/VBL, 680-fold resistance in vitro) were obtained from Dr. William Beck of the University of Illinois, Chicago, and CCRF-CEM/Taxol (330-fold resistance in vitro). Resistant cells CCRF-CEM/taxol were produced by exposing the parent cells to increasing sublethal concentration (IC50-IC90) of paclitaxel for six months.
(§2) In preparation for in vitro cytotoxicity assays, cells were cultured at an initial density 2-5×10^4 cells per milliliter. They were maintained in a 5% CO2-humidified atmosphere at 37° C. in RPMI medium 1640 (GIBCO/BRL) containing penicillin (100 units/mL), streptomycin (100 μg/mL, GIBCO/BRL), and 5% heat-inactivated FBS. For cells grown in suspension (such as CCRF-CEM and its sublines), cytotoxicity was measured, by using XTT microculture method in 96-well microtiter plates (Scudiero D A et al., Cancer Res. 1988, 48, 4827-4833). For solid tumor cells growing in a monolayer (such as MX-1 and HCT-116), cytotoxicity of the drug was determined, in duplicate, in 96-well microtiter plates by using the sulforhodamine B method (Skehan P et al., J. Natl. Cancer Inst 1990, 82, 1107-1112). For both methods, the absorbance of each well was measured with a microplate reader (Power Wave XS, Bio-Tek, Winooski, Vt.) after 72-hr incubation as described previously (Chou T-C et al., Proc. Natl. Acad. Sci. USA 2001, 98, 8113-8118). Dose-effect relationship data from 6 to 7 concentrations of each drug, in duplicate, were analyzed by using a computer program (Chou T-C et al., ComboSyn, Inc., Paramus, N J. 2005) based on the median-effect principle and plot (Chou T-C et al., Adv. Enzyme Regul. 1984, 22, 27-55; Chou T-C, Pharmacol. Rev. 2006, 58, 621-681).
(§3) The IC50 is defined by the concentration required to inhibit tumor cell growth by 50%. […] The growth inhibition of the compounds disclosed herein against human lymphoblastic leukemic cells (CCRF-CEM) and its drug-resistant sublines (resistant to vinblastine and taxol, CCRF-CEM/VBL and CCRF-CEM/taxol, respectively) is also shown in Table 5. […] Thus, the compounds disclosed herein are effective against multiple drug resistant tumors.

[1] = system: Human mammary carcinoma (MX-1) tumor cells; test: In vitro cytotoxicity, sulforhodamine B (SRB) assay; assay type: cell-based; details: 72-hr incubation
From the text: as §1, §2, §3

[2] = system: Human colon carcinoma HCT-116 cells; test: as above; assay type: cell-based
From the text: as §1, §2, §3

[3] = system: CCRF-CEM human lymphoblastic leukemia cells; test: In vitro cytotoxicity, XTT assay, 72-hr incubation; assay type: cell-based
From the text: as §1, §2, §3

CCRF-CEM/Taxol = test: In vitro cytotoxicity, XTT assay, taxol resistant subline; assay type: cell-based, human; details: for IC50: XTT assay, 72-hr incubation; for fold of cross-resistant, CCRF-CEM/Taxol vs IC50 of the parent cell line: numbers in brackets
From the text: as §1, §2, §3

[4] = Homo sapiens, HCT-116, 72-hr incubation

Structure (SMILES) | IC50 (CCRF-CEM/VBL; Homo sapiens, CCRF-CEM) | fold of cross-resistant, CCRF-CEM/VBL vs IC50 of the parent cell line (CCRF-CEM/VBL) | IC50 ([1]; Homo sapiens) | IC50 [2, 4] | IC50 ([3]; Homo sapiens, CCRF-CEM) | IC50 (CCRF-CEM/Taxol; Homo sapiens, CCRF-CEM) | fold of cross-resistant, CCRF-CEM/Taxol vs IC50 of the parent cell line (CCRF-CEM/Taxol) | IC50 (CCRF-CEM/VBL) | IC50 [1] | IC50 ([2]; 72-hr incubation) | IC50 [3] | IC50 (CCRF-CEM/Taxol)
OCc1c(CO)c(-c2ccc(F)c(F)c2)n2c1Cc1ccccc1C2 [DA-1112, [3-(3,4-Difluorophenyl)-2-hydroxymethyl-5,10-dihydropyrrolo[1,2-b]isoquinolin-1-yl]methanol] | 1010 nM | [0.89x] | 6670 nM | 2920 nM | 1140 nM | 745 nM | [0.66x] |  |  |  |  | 
CNC(=O)OCc1c(COC(=O)NC)c(-c2ccc(F)c(F)c2)n2c1Cc1ccccc1C2 [DA-1113, methylcarbamic acid 3-(3,4-difluorophenyl)-2-methylcarbamoyloxymethyl-5,10-dihydropyrrolo[1,2-b]isoquinolin-1-methyl ester] |  | [1.06x] |  |  |  |  | [1.32x] | 519 nM | 2710 nM | 358 nM | 488 nM | 643 nM
OCc1c(CO)c(-c2ccc(Cl)cc2)n2c1Cc1ccccc1C2 [DA-1116, [3-(4-Chlorophenyl)-2-hydroxymethyl-5,10-dihydropyrrolo[1,2-b]isoquinolin-1-yl]methanol] | 543 nM | [0.91x] | 3270 nM | 2640 nM | 600 nM | 601 nM | [1.00x] |  |  |  |  | 
CNC(=O)OCc1c(COC(=O)NC)c(-c2ccc(Cl)cc2)n2c1Cc1ccccc1C2 [DA-1117, methylcarbamic acid 3-(4-chlorphenyl)-2-methylcarbamoyloxymethyl-5,10-dihydropyrrolo[1,2-b]isoquinolin-1-ylmethyl ester] |  | [1.09x] |  |  |  |  | [1.13x] | 208 nM | 1170 nM | 356 nM | 191 nM | 216 nM
COc1ccccc1-c1c(CO)c(CO)c2n1-c1ccccc1C2 [DA-1123, (2-Hydroxymethyl-3-(2-methoxyphenyl)-8H-3a-aza-cyclopenta[a]inden-1-yl)methanol] | 1900 nM | [1.89x] | 8640 nM | 13400 nM | 1010 nM | 2680 nM | [2.68x] |  |  |  |  | 
CNC(=O)OCc1c(COC(=O)NC)c(-c2ccc(OC)c(OC)c2)n2c1Cc1ccccc1-2 [DA-1125, Methylcarbamic acid 3-(3,4-dimethoxyphenyl)-2-methylcarbamoyloxymethyl-8H-3a-aza-cyclopenta[a]inden-1-ylmethyl ester] | 374 nM | [1.07x] | 1840 nM | 680 nM | 350 nM | 497 nM | [1.42x] |  |  |  |  | 
COc1cccc(OC)c1-c1c(CO)c(CO)c2n1-c1ccccc1C2 [DA-1126, (3-(2,6-Dimethoxyphenyl)-2-hydroxymethyl-8H-3a-aza-cyclopenta[a]inden-1-yl)methanol] | 251 nM | [0.03x] | 25500 nM | 43700 nM | 8140 nM | 741 nM | [0.09x] |  |  |  |  | 
CNC(=O)OCc1c(COC(=O)NC)c(-c2c(OC)cccc2OC)n2c1Cc1ccccc1-2 [DA-1127, Methylcarbamic acid 3-(2,6-dimethoxyphenyl)-2-methylcarbamoyloxymethyl-8H-3a-aza-cyclopenta[a]inden-1-ylmethyl ester] | 697 nM | [1.08x] | 5480 nM | 1110 nM | 640 nM | 616 nM | [0.96x] |  |  |  |  | 
COc1cc(-c2c(CO)c(CO)c3n2-c2ccccc2C3)cc(OC)c1OC [DA-1128, (2-Hydroxymethyl-3-(3,4,5-trimethoxyphenyl)-8H-3a-aza-cyclopenta[a]inden-1-yl)-methanol] | 1140 nM | [0.56x] | 17600 nM | 30600 nM | 2050 nM | 1040 nM | [0.50x] |  |  |  |  | 
CNC(=O)OCc1c(COC(=O)NC)c(-c2cc(OC)c(OC)c(OC)c2)n2c1Cc1ccccc1-2 [DA-1129, Methylcarbamic acid 3-(3,4,5-trimethoxyphenyl)-2-methylcarbamoyloxymethyl-8H-3a-aza-cyclopenta[a]inden-1-ylmethyl ester] | 8400 nM | [0.71x] | 7250 nM | 1830 nM | 11800 nM | 14300 nM | [1.21x] |  |  |  |  | 
COc1ccc(-c2c(CO)c(CO)c3n2-c2ccc(OC)cc2C3)cc1 [DA-1130, (2-hydroxymethyl-6-methoxy-3-(4′-methoxyphenyl)-8H-3a-aza-cyclopenta[a]inden-1-yl)methanol] |  | [0.52x] |  |  |  |  | [1.10x] | 61 nM | 1520 nM | 610 nM | 118 nM | 130 nM
CNC(=O)OCc1c(COC(=O)NC)c(-c2ccc(OC)cc2)n2c1Cc1cc(OC)ccc1-2 [DA-1131, methylcarbamic acid 6-methoxy-3-(4-methoxyphenyl)-2-methylcarbamoyl-oxymethyl-8H-3a-aza-cyclopenta[a]inden-1-ylmethyl ester] | 63.9 nM | [1.03x] | 878 nM | 455 nM | 62 nM | 96.2 nM | [1.55x] |  |  |  |  | 
CC(=O)O[C@H]1C(=O)[C@@]2(C)[C@H]([C@H](OC(=O)c3ccccc3)[C@]3(O)C[C@H](OC(=O)[C@H](O)[C@@H](NC(=O)c4ccccc4)c4ccccc4)C(C)=C1C3(C)C)[C@]1(OC(C)=O)CO[C@@H]1C[C@@H]2O [Taxol, reference compound] | 429 nM | [330x] | 35 nM | 1.3 nM | 1.3 nM | 1270 nM |  |  |  |  |  | 
CC[C@]1(O)C[C@@H]2CN(CCc3c([nH]c4ccccc34)[C@@](C(=O)OC)(c3cc4c(cc3OC)N(C)[C@H]3[C@@](O)(C(=O)OC)[C@H](OC(C)=O)[C@]5(CC)C=CCN6CC[C@]43[C@@H]65)C2)C1 [Vinblastine, reference compound] | 78 nM |  | 2.9 nM | 1.8 nM | 0.73 nM | 496 nM | [679.5x] |  |  |  |  | 
